Data as given in the supplement of paper PMC11061612.

Legend:
Assay in all cases: Bliss excess, mean over the matrix (fraction); higher = more synergy
IGR-1 (Melanoma) = system: IGR-1 (Melanoma)
In short: (§1)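 Bliss excess equals the observed combination effect minus the expected value EA + EB − EA·EB, where EA and EB are the effects of each agent alone. Combination Emax is the second-highest inhibition within the matrix. Inhibition was scaled from CellTiter-Glo 2.0 luminescence, with 0 set by vehicle wells and 1 by blank wells, after 72 hours of two-drug dosing of cells plated in 1536-well plates.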

[1] = system: NCI-H1694 (Small Cell Lung Carcinoma)
In short: as §1

[2] = system: SW1783 (Low Grade Glioma)
In short: as §1

NCI-H2595 (Mesothelioma) = system: NCI-H2595 (Mesothelioma)
In short: as §1

[3] = system: MFH-ino (Other Solid Carcinomas)
In short: as §1

[4] = system: SW1990 (Pancreatic Carcinoma)
In short: as §1

[5] = system: NCI-H1793 (Lung Adenocarcinoma)
In short: as §1

[6] = system: C3A (Hepatocellular Carcinoma)
In short: as §1

[7] = system: NCI-H1781 (Lung Adenocarcinoma)
In short: as §1

[8] = system: KARPAS-620 (Plasma Cell Myeloma)
In short: as §1

[9] = system: KARPAS-1106P (B-Cell Non-Hodgkin's Lymphoma)
In short: as §1

[10] = system: NCI-H1299 (Non-Small Cell Lung Carcinoma)
In short: as §1

[11] = system: KATOIII (Gastric Carcinoma)
In short: as §1

NCI-H2369 (Mesothelioma) = system: NCI-H2369 (Mesothelioma)
In short: as §1

[12] = system: JiyoyeP-2003 (Burkitt's Lymphoma)
In short: as §1

[13] = system: TGBC24TKB (Biliary Tract Carcinoma)
In short: as §1

[14] = system: SW756 (Cervical Carcinoma)
In short: as §1

[15] = system: LS-513 (Colorectal Carcinoma)
In short: as §1

[16] = system: COR-L95 (Small Cell Lung Carcinoma)
In short: as §1

[17] = system: OCI-AML2 (Acute Myeloid Leukemia)
In short: as §1

SMILES | Bliss excess (IGR-1 (Melanoma)) | Bliss excess [1] | Bliss excess [2] | Bliss excess (NCI-H2595 (Mesothelioma)) | Bliss excess [3] | Bliss excess [4] | Bliss excess [5] | Bliss excess [6] | Bliss excess [7] | Bliss excess [8] | Bliss excess [9] | Bliss excess [10] | Bliss excess [11] | Bliss excess (NCI-H2369 (Mesothelioma)) | Bliss excess [12] | Bliss excess [13] | Bliss excess [14] | Bliss excess [15] | Bliss excess [16] | Bliss excess [17]
CN(C)CCCOc1ccc(-c2ccc3ncc4c(c3c2)n(C2CCOCC2)c(=O)n4C)cn1 [AZD0156] + C=CCn1c(=O)c2cnc(Nc3ccc(N4CCN(C)CC4)cc3)nc2n1-c1cccc(C(C)(C)O)n1 [AZD1775] (first compound max 1 µM, partner max 1 µM) | -0.031 | -0.0303 | -0.0624 | -0.062 | -0.0954 | -0.0358 | -0.0489 | -0.0866 | -0.0014 | 0.0135 | -0.0384 | -0.0179 | -0.064 | -0.0266 | -0.0012 | -0.0224 | -0.0386 | -0.0448 | -0.107 | -0.0258
COc1cc2c(cc1OCCCCCOc1cc3c(cc1OC)C(=O)N1C=C(C)C[C@H]1C=N3)N=C[C@@H]1CC(C)=CN1C2=O [SG3199] + O=C(c1cc(Cc2n[nH]c(=O)c3ccccc23)ccc1F)N1CCN(C(=O)C2CC2)CC1 [Olaparib] (first compound max 0.001 µM, 7x7, partner max 10 µM) | -0.0189 | -0.0222 | -0.0446 | -0.0437 | -0.0739 | -0.049 | -0.0323 | -0.0528 | -0.0305 | -0.0015 | -0.0202 | -0.0381 | -0.0365 | -0.035 | -0.0016 | -0.0087 | 0.0091 | -0.0372 | -0.0224 | -0.0546
Cc1c2c(nn1C)CSCc1cc(n(C)n1)CSc1cc(c3ccccc3c1)OCCCc1c(C(=O)O)n(C)c3c-2c(Cl)ccc13 [AZD5991] + C[C@@H]1COCCN1C2=NC(=NC(=C2)C3(CC3)[S@](=N)(=O)C)C4=C5C=CNC5=NC=C4 [AZD6738] (first compound max 1 µM, 7x7, partner max 10 µM) | 0.105 | 0.0064 | 0.0272 | -0.0124 | 0.0319 | -0.0062 | 0.0097 | 0.0412 | 0.0103 | 0.0243 | 0.0182 | 0.0159 | -0.0192 | 0.0442 | 0.0159 | -0.006 | 0.02 | 0.0383 | 0.0482 | 0.0168
CC1(C)CCC(CN2CCN(c3ccc(C(=O)NS(=O)(=O)c4ccc(NCC5CCOCC5)c([N+](=O)[O-])c4)c(Oc4cnc5[nH]ccc5c4)c3)CC2)=C(c2ccc(Cl)cc2)C1 [Venetoclax] + CN(C)CCCOc1ccc(-c2ccc3ncc4c(c3c2)n(C2CCOCC2)c(=O)n4C)cn1 [AZD0156] (first compound max 1 µM, 7x7, partner max 1 µM) | 0.0116 | -0.0001 | -0.0532 | 0.0103 | -0.0403 | -0.0056 | -0.0158 | -0.0414 | 0.0048 | 0.04 | 0.0261 | -0.004 | -0.0156 | -0.0298 | -0.0128 | 0.0307 | -0.0215 | -0.0273 | 0.0051 | -0.0267
C[C@@H](c1ccc2nccn2c1)n1nnc2ncc(-c3cnn(C)c3)nc21 [Savolitinib] + Cc1c2c(nn1C)CSCc1cc(n(C)n1)CSc1cc(c3ccccc3c1)OCCCc1c(C(=O)O)n(C)c3c-2c(Cl)ccc13 [AZD5991] (first compound max 1 µM, 7x7, partner max 1 µM) | -0.0112 | 0.0027 | -0.0133 | -0.052 | -0.0572 | -0.0306 | -0.0351 | -0.0229 | -0.0293 | -0.049 | -0.0518 | -0.0519 | -0.0149 | -0.0527 | -0.0034 | -0.029 | -0.0692 | -0.0219 | -0.0171 | -0.0167
Cc1cc2ncnn2cc1Nc1ncc2c(n1)n(C1CCOCC1)c(=O)n2C [AZD7648] + C=CCn1c(=O)c2cnc(Nc3ccc(N4CCN(C)CC4)cc3)nc2n1-c1cccc(C(C)(C)O)n1 [AZD1775] (first compound max 10 µM, partner max 1 µM) | -0.0255 | -0.0234 | 0.0078 | -0.0242 | 0.0118 | -0.0255 | 0.0622 | 0.0187 | -0.0222 | -0.0493 | -0.0202 | -0.0314 | -0.0052 | 0.0034 | 0.0246 | 0.0098 | -0.0211 | -0.023 | -0.0543 | -0.0039
CC1(C)CCC(CN2CCN(c3ccc(C(=O)NS(=O)(=O)c4ccc(NCC5CCOCC5)c([N+](=O)[O-])c4)c(Oc4cnc5[nH]ccc5c4)c3)CC2)=C(c2ccc(Cl)cc2)C1 [Venetoclax] + C1CN(CCC1(C(=O)N[C@@H](CCO)C2=CC=C(C=C2)Cl)N)C3=NC=NC4=C3C=CN4 [Capivasertib] (first compound max 1 µM, 7x7, partner max 3 µM) | -0.0602 | -0.0418 | -0.0494 | -0.0465 | -0.0294 | -0.064 | -0.041 | -0.0621 | -0.0811 | 0.0971 | -0.0409 | -0.0036 | -0.0691 | -0.0422 | -0.0144 | 0.0325 | -0.0171 | -0.0649 | 0.0145 | 0.0444
NC1(C(=O)N[C@@H](CCO)c2ccc(Cl)cc2)CCN(c2ncnc3[nH]ccc23)CC1 [Capivasertib] + C[C@@H]1COCCN1C2=NC(=NC(=C2)C3(CC3)[S@](=N)(=O)C)C4=C5C=CNC5=NC=C4 [AZD6738] (first compound max 10 µM, 7x7, partner max 10 µM) | -0.0227 | -0.0412 | -0.0511 | -0.0114 | -0.086 | -0.0259 | 0.0097 | -0.0096 | -0.032 | -0.0384 | -0.0661 | -0.0309 | -0.0941 | -0.0127 | -0.0698 | -0.0104 | 0.0407 | -0.0697 | -0.0644 | -0.0474
NC1(C(=O)N[C@@H](CCO)c2ccc(Cl)cc2)CCN(c2ncnc3[nH]ccc23)CC1 [Capivasertib] + Cn1cnc2c(F)c(Nc3ccc(Br)cc3Cl)c(C(=O)NOCCO)cc21 [Selumetinib] (first compound max 10 µM, 7x7, partner max 10 µM) | 0.103 | -0.0078 | -0.0097 | -0.0454 | -0.0205 | 0.0535 | -0.0292 | -0.0208 | 0.105 | 0.114 | 0.0759 | 0.0153 | 0.0291 | -0.0292 | 0.101 | 0.132 | -0.0177 | 0.0031 | -0.0359 | 0.0547
NC1(C(=O)N[C@@H](CCO)c2ccc(Cl)cc2)CCN(c2ncnc3[nH]ccc23)CC1 [Capivasertib] + CCN(CCO)CCCOc1ccc2c(Nc3cc(CC(=O)Nc4cccc(F)c4)[nH]n3)ncnc2c1 [AZD2811] (first compound max 10 µM, 7x7, partner max 1 µM) | 0.0077 | 0.0503 | -0.0236 | -0.0718 | -0.0542 | -0.033 | -0.0515 | -0.0156 | -0.0433 | 0.0272 | 0.0426 | 0.0012 | -0.0213 | -0.0446 | -0.0303 | 0.0111 | -0.0299 | -0.0771 | -0.0075 | 0.0134
CC(=O)Nc1cccc(-n2c(=O)n(C3CC3)c(=O)c3c(Nc4ccc(I)cc4F)n(C)c(=O)c(C)c32)c1 [Trametinib] + Cc1nc(-c2cn3c(n2)-c2ccc(-c4cnn(C(C)(C)C(N)=O)c4)cc2OCC3)n(C(C)C)n1 [Taselisib] (first compound max 1 µM, 7x7, partner max 10 µM) | 0.15 | 0.0583 | -0.027 | 0.0412 | 0.148 | 0.148 | 0.0519 | 0.147 | -0.053 | 0.24 | 0.088 | 0.121 | 0.0938 | 0.046 | 0.108 | 0.196 | 0.0988 | 0.0113 | 0.0096 | 0.0227
CN(CCO)CC[C@H](CSc1ccccc1)Nc1ccc(S(=O)(=O)NC(=O)c2ccc(N3CCC([C@@H](O)c4ccccc4-c4ccc(Cl)cc4)CC3)cc2)cc1S(=O)(=O)C(F)(F)F [AZD4320] + C=CCn1c(=O)c2cnc(Nc3ccc(N4CCN(C)CC4)cc3)nc2n1-c1cccc(C(C)(C)O)n1 [AZD1775] (first compound max 1 µM, partner max 1 µM) | 0.146 | 0.0834 | 0.0433 | -0.0113 | -0.0288 | 0.0307 | -0.0061 | -0.0619 | -0.003 | -0.0125 | 0.028 | -0.0107 | -0.043 | -0.0413 | 0.0154 | -0.0323 | -0.0225 | -0.0134 | 0.0519 | 0.0312
Cc1cc2ncnn2cc1Nc1ncc2c(n1)n(C1CCOCC1)c(=O)n2C [AZD7648] + CN(C)CCCOc1ccc(-c2ccc3ncc4c(c3c2)n(C2CCOCC2)c(=O)n4C)cn1 [AZD0156] (first compound max 10 µM, 7x7, partner max 1 µM) | -0.0223 | 0.0062 | -0.0078 | -0.0373 | -0.0299 | -0.0182 | 0.0044 | -0.032 | 0.0151 | -0.0373 | 0.0083 | 0.0177 | -0.0204 | 0.0327 | -0.0067 | 0.009 | 0.0076 | -0.021 | -0.0218 | -0.022
COc1nnc2ccc(N3CCC(c4ccc(OCCN5CCN(C)C(=O)[C@H]5C)cc4)CC3)nn12 [AZD5153] + Cn1cnc2c(F)c(Nc3ccc(Br)cc3Cl)c(C(=O)NOCCO)cc21 [Selumetinib] (first compound max 1 µM, 7x7, partner max 10 µM) | 0.0544 | -0.0641 | -0.0214 | -0.0604 | -0.0031 | -0.0209 | 0.0212 | -0.0272 | -0.0085 | 0.112 | 0.013 | -0.0243 | -0.0294 | -0.048 | -0.0117 | 0.158 | 0.0167 | -0.0213 | -0.0561 | 0.0311
